Reference: patent publication US12435074B2, “Physics-driven discovery of novel small therapeutic compounds for use as a BCL-2 inhibitor” (BAHCESEHIR UNIVERSITESI, priority 2020, dated 2025)

Test system: HCT-116 colon cancer cell line
Test: MTT cell proliferation assay on HCT-116 cells
Type: cell-based
Description: For cell culture experiments various cancer cell lines, HCT-116 colon cancer, U87-MG glial tumor, MCF7 breast cancer cell lines were used. Cells were seeded with high glucose DMEM medium (Biosera) supplemented with 10% FBS (Gibco) and 1X penicillin/streptomycin (Multicell). Twenty-four hours prior to molecule treatment, 10,000 cells were seeded into each well of 24-well cell culture plates. Molecules were used by preparing 4 mM stock solution in DMSO (Amresco). For molecule treatment, molecule stock solutions were diluted in DMEM with 10% FBS and added onto cells in each corresponding well. Final concentration of vehicle DMSO was 2% at maximum. […] We calculated the number of cells to be seeded to make sure that none of the cells reaches more than 60% confluency during the treatment period, as higher plate confluency levels would slow down cell proliferation independently from the molecule treatment.
Values of half-maximal inhibitory concentration were (IC50) determined by MTT cell proliferation assays. […] 570 nm absorbance values were recorded and IC50 values were calculated by dose response—inhibition curves and nonlinear regression analysis on GraphPad Prism 8 software. […] Following the initial incubation day, molecules were added and after incubation with MTT at 37° C. for 4 hours, formazan was solubilized with DMSO (Sigma-Aldrich, St. Louis, USA) and absorbance was measured at 570 nm. […]

## CCC(C)(C)C1CCc2c(sc(NC(=O)c3cc(-c4ccc(Cl)s4)nc4ccccc34)c2C(N)=O)C1 (centres unmarked) [compound of formula I]
FIG. 1, versus vehicle (max 2% DMSO)
  proliferation of HCT-116 cells compared to vehicle group: reduced proliferation and apoptotic cell structures
Homo sapiens, 72 h, single treatment, three days results, 570 nm absorbance, read-out: IC50 (half-maximal inhibitory concentration)
  IC50: 130 µM
